Publication PMC3183257 (Tuberculosis (Edinburgh, Scotland), 2011)
Values after ≈ are worked out from the molar mass of the structure shown.

Legend:
[1] = tested on: Mycobacterium tuberculosis H37Rv; test: Mtb dose response; type: cell-based; settings: for IC90: Table 2, Mtb H37Rv dose response
Vero cells = test: Cell cytotoxicity assay using Vero cells, CellTiter-Glo luminescence
[2] = tested on: tufted apple budmoth larvae (P. idaeusalis); settings: cited from earlier work

## COc1ccccc1-c1cnn2c(Nc3cccc(Cl)c3)cc(C)nc12 [Compound 4a]
[1]
  IC90: 1.7 µg/mL (≈ 4.66 µM)

## COc1cccc(Nc2cc(C)nc3c(-c4ccccc4)cnn23)c1 [Compound 4b]
[1]
  IC90: 1.8 µg/mL (≈ 5.45 µM)

## Cc1cc(C)cc(Nc2cc(C)nc3c(-c4ccccc4)cnn23)c1 [Compound 4c]
[1]
  IC90: 2.7 µg/mL (≈ 8.22 µM)

## Cc1cc(Nc2ccc(C)c(Cl)c2)n2ncc(-c3ccccc3)c2n1 [Compound 4d]
[1]
  IC90: 3.4 µg/mL (≈ 9.75 µM)

## Cc1cc(Nc2ccc(C)c(C)c2)n2ncc(-c3ccccc3)c2n1 [Compound 4e]
[1]
  IC90: 3.4 µg/mL (≈ 10.4 µM)

## O=C(OCn1nnc2ccccc2c1=O)c1ccccc1 [Compound 7a]
Vero cells
  cytotoxicity: > 40 µg/mL

## CCOc1ccc(C(=O)Nc2nnc(-c3ccccn3)o2)cc1 [Compound 22a]
[1]; Mtb IC90 and Vero selectivity
  activity and toxicity in words: potent and relatively non-toxic

## NCC[C@H](O)C(=O)N[C@@H]1C[C@H](N)[C@@H](O[C@H]2O[C@H](CN)[C@@H](O)[C@H](O)[C@H]2O)[C@H](O)[C@H]1O[C@H]1O[C@H](CO)[C@@H](O)[C@H](N)[C@H]1O [amikacin, reference compound]
[1]; Mycobacterium tuberculosis, H37RV
  IC50: 0.13 µg/mL (≈ 0.222 µM)
[1]; Mycobacterium tuberculosis, H37RV, read-out: inhibition of Mtb growth
  inhibition at 0.13 µg/mL: 33 to 60%

## COP(=S)(OC)SCn1nnc2ccccc2c1=O [azinphosmethyl]
[2]
  susceptibility of larvae: susceptible
